Patent US20100068211A1, “USE OF ANTIRESORPTIVE COMPOUNDS TO PREVENT IONIZING RADIATION-INDUCED ACTIVATION OF OSTEOCLASTS AND RESULTING BONE LOSS” (priority 2008, published 2010)
Marks after values point to notes of the source that are not given here.

Experiments:
[1] = tested on: female Sprague-Dawley rats; assay: Rat model, clinically-modeled radiation dose regimen with risedronate, tibia microCT (Example 5); type: in vivo; settings: risedronate 0.1 mg/kg/week subcutaneously; for Conn. Dens. (connectivity density) / SMI (structural model index) / Tb. N. (trabecular number) / Tb. Sp. (trabecular spacing) / Tb. Th (trabecular thickness) / BV/TV (bone volume fraction): mean ± SEM
Text: The right hindlimb from twenty-one week old female Sprague-Dawley rats were irradiated using a clinical irradiator (linear accelerator; LINAC; Wake Forest University). The dose applied was 16 Gy given as 4 fractions of 4 Gy each. This dose is the equivalent in terms of biological impacts on the hip during the course of radiation therapy for cancer, as determined by radiation biophysicists. Irradiations (all four total) were provided over the course of two weeks. Animals either received no radiation, radiation only, or radiation+risedronate injection (0.1 mg/kg/week subcutaneously). Administration of risedronate was provided one day prior to the first irradiation, then three times per week until sacrifice.
Animals were sacrificed two and four weeks after exposure. Hindlimbs were removed, and the tibiae were examined via microCT for several parameters. Meanings of the following trabecular parameters as they relate with conditions of increased resorption or atrophy are provided in Example 3 Methods Section: BV/TV; connectivity density (Conn.Dens.); trabecular thickness (Tb.Th.); trabecular number (Tb.N); and trabecular spacing (Tb.S.) were again determined. All measurements were taken within a region extending 1 mm distal to the growth plate.

female C57BL/6 mice = assay: Risedronate treatment of radiation-induced bone loss in mice, microCT (Example 4); type: in vivo; settings: 2 Gy whole body X-rays
TRAP5b = assay: Serum TRAP5b ELISA, irradiated mice treated with risedronate (Example 4b); type: in vivo; settings: 2 Gy irradiated mice, risedronate 30 μg/kg every other day, 7, 14 and 21 days
Experimental: (§1) Tissue collection: 12 individuals from each group were sacrificed at 1, 2, and 3 weeks following the initial radiation exposure. Each mouse weighed then anesthetized using isoflurane, and blood was collected for serum analysis by cardiac puncture and exsanguination followed by cervical dislocation to ensure death. Serum was isolated by centrifugation, flash frozen in liquid nitrogen, and stored at −80° C. The left and right hind limbs as well as the vertebral column were collected for analysis. Hind limbs were removed and disarticulated. Tibiae and femora were cleaned of soft tissue and fixed in a solution of 10% formalin. After 48 hours, the bones were placed in 70% ethanol. The vertebral column was frozen at −20° C. to ensure microcomputed tomography (microCT) analysis of the fifth lumbar vertebrae (L5).
(§2) Serum Chemistry: Serum samples were analyzed for circulating markers of bone formation and resorption. ELISA kits for osteocalcin (Biomedical Technologies, Inc., Stoughton, Mass.) and tartrate-resistant acid phosphatase (TRAP5b) (Immunodiagnostic Systems, Inc., Fountain Hills, Az.), respectively. The analyses were performed according to protocols provided by the manufacturers.

osteoclasts = assay: Histological analysis of osteoclast surface (TRAP staining), proximal tibia trabecular bone (Example 4c); type: in vivo, mice; settings: one week after exposure, but not two and three weeks; 2 Gy; risedronate 30 micrograms/kg every other day; versus non-irradiated control
Text: Osteoclast Identification: Following tomographic analysis, the left tibiae were decalcified using a formic acid solution (Immunocal; Decal Chemical Corp., Talman, N.Y.) and embedded in a glycol methacrylate resin (ImmunoBed™; Polysciences, Wasrrington, Pa.). The samples were cut into sagittal sections with a thickness of 3 μm. A subset of each group (n=5-6) was selected for analysis. Each slide was stained with TRAP using a commercial kit (Sigma, St. Louis, Mo.) to identify osteoclasts and counterstained with hematoxylin, Radiographs assessed the earliest time point of complete decalcification. […] Osteoclast presence was determined by tartrate resistant acid phosphatase (TRAP) staining of the slides using a commercial kit (Sigma; St. Louis, Mo.) and then counterstaining with hematoxylin (Sigma).
Histomorphometric evaluation was performed from captured micrographs (200×) throughout the metaphysis, starting approximately 0.25 mm distal from the growth plate (in order to exclude the primary spongiosa) and extending a further 0.5 mm. Bone histomorphometric parameters for the proximal metaphysis of the tibia were measured as described in the report of the American Society of Bone and Mineral Research (ASBMR) Histomophometry Nomenclature Committee (22). Surface measurements were quantified relative to total bone surface (BS). […]

rats = settings: 0.1 mg/kg/week administered subcutaneously; cited from earlier work
osteocalcin = assay: Serum osteocalcin ELISA, irradiated mice treated with risedronate (Example 4b); type: in vivo; settings: 2 Gy irradiated mice; risedronate 30 μg/kg every other day
Experimental: as §1, §2

aged rats = aged rats (9 months then allowed to mature 60 days); 0.02 or 0.04 mg/kg/wk; cited from earlier work
[2] = realistic order stated in text; 1% assumed for dose conversion; cited from earlier work
OVX rat = settings: OVX rats; administered orally; cited from earlier work
minipigs = settings: 2.5 vs 0.5 mg/kg/day oral; cited from earlier work
female B6 mice = assay: High dose zoledronate against radiation-induced bone loss in mice, microCT (Example 6); type: in vivo; settings: for radiation-induced bone loss: 12-week-old mice, 2 Gy whole body X-rays, single 10 mg/kg dose of zoledronate, microCT 2 weeks after irradiation, 10 mg/kg
Experimental: The antiresorptive bisphosphonate zoledronate was selected as representative of the class of antiresorptive agents and was tested, at high doses of 10 mg/kg, for its ability to prevent radiation-induced bone loss.
12-week-old female B6 mice were either 1) not irradiated and treated with a placebo injection, 2) irradiated with a 2 Gy whole body dose of X-rays and treated with a placebo injection, or 3) irradiated with a 2 Gy whole body dose of X-rays and treated with a single 10 mg/kg dose of […]. Bones were collected and examined by microCT 2 weeks after irradiation and zoledronate injection.

[3] = cited from earlier work
[4] = 2 Week Examination, 16 Gy (4 x 4 Gy)
[5] = 4 Week Examination, 16 Gy (4 x 4 Gy)
[6] = risedronate 30 μg/kg subcutaneous every other day

For `O=P(O)(O)C(O)(Cc1cccnc1)P(=O)(O)O` [risedronate], the “Conn. Dens. (connectivity density)” value [1, 4] was 95.4 ± 4.4^b l/mm^3, the “SMI (structural model index)” value [1, 4] was 0.83 ± 0.07^e and the “Tb. N. (trabecular number)” value [1, 4] was 4.02 ± 0.11^g. For the same compound, the “Tb. Sp. (trabecular spacing)” value [1, 4] was 216 ± 8^g μm, the “Tb. Th (trabecular thickness)” value [1, 4] was 90.1 ± 1.4^b and the “BV/TV (bone volume fraction)” value ([1]; 2 Week Examination, right hindlimb 16 Gy (4 fractions of 4 Gy), tibia microCT) was 31.9 ± 0.79^e %. For the same compound, the “effect on radiation-induced trabecular deterioration relative with control” value ([1]; 2 weeks, rats, 16 Gy) was “largely mitigated these changes”, the “sparing effect on connectivity of the trabeculae compared with the differences after only receiving radiation” value ([1]; 2 weeks, rats) was 12% and the “BV/TV (bone volume fraction)” value [1, 5] was 34.4 ± 1.2^b,^f %. The “Conn. Dens. (connectivity density)” value [1, 5] was 109.3 ± 4.6^e l/mm^3, the “SMI (structural model index)” value [1, 5] was 0.68 ± 0.12^a,^f and the “Tb. N. (trabecular number)” value [1, 5] was 4.37 ± 0.09^f. For the same compound, the “Tb. Sp. (trabecular spacing)” value [1, 5] was 193 ± 5^f μm, the “Tb. Th (trabecular thickness)” value [1, 5] was 90.9 ± 1.1^c,^h and the “evidence of trabecular deterioration via microCT relative with control” value ([1]; Week 4, rats, 16 Gy) was “has disappeared by Week 4”. The “radiation-induced bone loss at the 5th lumbar vertebra (FIG. 13)” value (female C57BL/6 mice; [6]) was “prevents rapid radiation-induced bone loss”, the “radiation-induced bone loss at the distal femur (FIG. 12)” value (female C57BL/6 mice; [6]) was “prevents rapid radiation-induced bone loss” and the “radiation-induced bone loss (proximal tibia, distal femur and 5th lumbar vertebra)” value (female C57BL/6 mice; risedronate 30 μg/kg/injection subcutaneous every other day, 1, 2 and 3 weeks) was “prevents radiation-induced bone loss”. The “serum TRAP5b levels (marker for osteoclast activity)” value (TRAP5b) was “reduced at all time points”, the “serum TRAP5b levels (marker for osteoclast activity)” value (TRAP5b; listed as Risedronate) was “reduced TRAP5b levels at all time points” and the “osteoclast surface, proximal tibia trabecular bone” value (osteoclasts) was “greater osteoclast surface”. For the same compound, the “bone volume and fraction in GIO” value (rats) was “increased bone volume and fraction by reducing turnover”, the “serum osteocalcin levels (marker for bone formation)” value (osteocalcin) was “trended to decrease levels” and the “histomorphometric changes in the tibial diaphysis” value (aged rats) was “no histomorphometric changes”. The oral bioavailability [2] was 0.5-0.7%, the “oral doses at which improvement in bone mineral density and preservation of microarchitecture generally occurred” value (OVX rat) was “greater than 0.5 mg/kg/day” and the “preserving architecture, comparison of oral doses” value (minipigs) was “more pronounced in animal models (minipigs) using 2.5 mg/kg/day than 0.5 mg/kg/day”.
With `O=P(O)(O)C(O)(Cn1ccnc1)P(=O)(O)O` [zoledronate] the radiation-induced bone loss (female B6 mice) was “prevents radiation-induced bone loss”, the radiation-induced bone loss (female B6 mice; listed as Zoledronate) was “prevented the bone loss” and the “bone mass versus untreated, non-irradiated levels” value (female B6 mice; growing mice, 2 Gy, single 10 mg/kg zoledronate, 2 weeks) was “increased to greater than untreated, non-irradiated levels”.
For “Denosumab: fully human anti-RANKL antibody that binds RANK ligand and blocks its binding to RANK, formerly AMG162 (Amgen)”, the “effect of low doses on markers for bone formation” value ([3]; 0.01 mg/kg and 0.03 mg/kg) is listed as “reduced markers for bone formation, but for only temporary periods”, the duration of efficacy ([3]; 0.3, 1.0 and 3.0 mg/kg) is listed as > 30 days and the “performance compared with standard 90 mg dose of pamidronate” value ([3]; 0.3, 1.0 and 3.0 mg/kg) is listed as “performed similarly”.
